Patent publication US6461997B1, “Triazole sulfones having herbicidal activity” (Monsanto Technology LLC, priority 1999, dated 2002)

Columns and labels:
[1] = test system: CHEAL (common lambsquarters); experiment: Pre-emergence herbicidal activity, warm season; assay type: in vivo, Chenopodium album; settings: GR80 = lowest tested rate (300, 100, 30, 10 g/ha) with 80% or greater inhibition; approx. 14 days after treating; 30/21° C.
Description: (§1) Tables 5 to 8 summarize results of tests conducted as described below to determine the pre-emergence herbicidal activity, in the form of a GR80 value, of illustrative compounds of this invention. […] Compounds of the invention were typically applied at rates of 300, 100, 30, and 10 g/ha. Where herbicidal activity was evident but 80% inhibition was not achieved at the highest rate tested, an asterisk (*) is shown in the following tables.
(§2) The pre-emergence tests were conducted by the following procedure. Topsoil was sieved to pass through a 1.27 cm screen. Fertilizer was added to the topsoil and the mixture was then sterilized by heating. The topsoil mixture was placed in a pot and compacted to a depth of 1.0 to 1.25 cm from the top of the pot. Seeds of each of several monocotyledonous and dicotyledonous annual plant species were placed on top of the soil. Additional soil was subsequently placed over the seeds to level-fill the pot. A known amount of each test compound dissolved or suspended in an appropriate organic solvent was diluted with a 50:50 mix of acetone and water and applied to the surface of the soil. After treatment the plants were placed in a greenhouse where they received 0.64 cm of overhead irrigation. All subsequent watering consisted of a light overhead mist and/or subirrigation as needed for germination and growth. Tables 5 and 6 below relate to warm season plant species which were placed after pre-emergence treatment in a greenhouse with a 30/21° C. day/night temperature regime. Tables 7 and 8 below relates to cool season plant species placed after pre-emergence treatment in a greenhouse or growth chamber with an 18/13° C. day/night temperature regime.
(§3) Approximately 14 days after planting and treating, the plants were observed and herbicidal efficacy recorded as percent inhibition by comparison with untreated plants.
(§4) The plant species usually regarded as weeds which were utilized in the tests are identified in the tables below according to the following legend, in which “d” indicates a dicotyledonous species and “m” a monocotyledonous species. All monocotyledonous species included in the tests herein are grasses.

STEME (common chickweed) = experiment: Pre-emergence herbicidal activity, cool season; assay type: in vivo, Stellaria media; settings: lowest tested rate with 80% or greater inhibition; rates 300, 100, 30, 10 g/ha; about 14 days
Description: as §1, §2, §3, §4

SINAR (wild mustard) = experiment: Pre-emergence herbicidal activity, cool season; assay type: in vivo, Sinapis arvensis; settings: lowest tested rate with 80% or greater inhibition; rates 300, 100, 30, 10 g/ha; about 14 days
Description: as §1, §2, §3, §4

[2] = test system: AGSST (creeping bentgrass); experiment: Pre-emergence herbicidal activity, cool season; assay type: in vivo, Agrostis stolonifera; settings: GR80 = lowest tested rate (300, 100, 30, 10 g/ha) with 80% or greater inhibition; approx. 14 days after treating; 18/13° C.
Description: as §1, §2, §3, §4

[3] = test system: LAMPU (purple deadnettle); experiment: Pre-emergence herbicidal activity, cool season; assay type: in vivo, Lamium purpureum; settings: lowest tested rate with 80% or greater inhibition; rates 300, 100, 30, 10 g/ha; about 14 days
Description: as §1, §2, §3, §4

[4] = test system: SORHA (johnsongrass (seedling)); experiment: Pre-emergence herbicidal activity, warm season; assay type: in vivo, Sorghum halepense; settings: GR80 = lowest tested rate (300, 100, 30, 10 g/ha) with 80% or greater inhibition; approx. 14 days after treating; 30/21° C.
Description: as §1, §2, §3, §4

POLCO (wild buckwheat) = experiment: Pre-emergence herbicidal activity, cool season; assay type: in vivo, Polygonum convolvulus; settings: lowest tested rate with 80% or greater inhibition; rates 300, 100, 30, 10 g/ha; about 14 days
Description: as §1, §2, §3, §4

SETFA (giant foxtail) = experiment: Pre-emergence herbicidal activity, warm season; assay type: in vivo, Setaria faberi; settings: GR80 = lowest tested rate (300, 100, 30, 10 g/ha) with 80% or greater inhibition; approx. 14 days after treating; 30/21° C.
Description: as §1, §2, §3, §4

[5] = test system: PANMI (wild proso millet); experiment: Pre-emergence herbicidal activity, warm season; assay type: in vivo, Panicum miliaceum; settings: GR80 = lowest tested rate (300, 100, 30, 10 g/ha) with 80% or greater inhibition; approx. 14 days after treating; 30/21° C.
Description: as §1, §2, §3, §4

[6] = test system: VERPE (creeping speedwell); experiment: Pre-emergence herbicidal activity, cool season; assay type: in vivo, Veronica persicaria; settings: lowest tested rate with 80% or greater inhibition; rates 300, 100, 30, 10 g/ha; about 14 days
Description: as §1, §2, §3, §4

SETVI (green foxtail) = experiment: Pre-emergence herbicidal activity, cool season; assay type: in vivo, Setaria viridis; settings: GR80 = lowest tested rate (300, 100, 30, 10 g/ha) with 80% or greater inhibition; approx. 14 days after treating; 18/13° C.
Description: as §1, §2, §3, §4

POROL (common purslane) = experiment: Pre-emergence herbicidal activity, warm season; assay type: in vivo, Portulaca oleracea; settings: GR80 = lowest tested rate (300, 100, 30, 10 g/ha) with 80% or greater inhibition; approx. 14 days after treating; 30/21° C.
Description: as §1, §2, §3, §4

AMARE (redroot pigweed) = experiment: Pre-emergence herbicidal activity, warm season; assay type: in vivo, Amaranthus retroflexus; settings: GR80 = lowest tested rate (300, 100, 30, 10 g/ha) with 80% or greater inhibition; approx. 14 days after treating; 30/21° C.
Description: as §1, §2, §3, §4

[7] = test system: GALAP (catchweed bedstraw); experiment: Pre-emergence herbicidal activity, cool season; assay type: in vivo, Galium aparine; settings: lowest tested rate with 80% or greater inhibition; rates 300, 100, 30, 10 g/ha; about 14 days
Description: as §1, §2, §3, §4

SASKR (russian thistle) = experiment: Pre-emergence herbicidal activity, cool season; assay type: in vivo, Salsola kali; settings: lowest tested rate with 80% or greater inhibition; rates 300, 100, 30, 10 g/ha; about 14 days
Description: as §1, §2, §3, §4

ECHCG (barnyardgrass) = experiment: Pre-emergence herbicidal activity, warm season; assay type: in vivo, Echinochloa crus-galli; settings: GR80 = lowest tested rate (300, 100, 30, 10 g/ha) with 80% or greater inhibition; approx. 14 days after treating; 30/21° C.
Description: as §1, §2, §3, §4

[8] = test system: CIRAR (canada thistle (seedling)); experiment: Pre-emergence herbicidal activity, warm season; assay type: in vivo, Cirsium arvense; settings: GR80 = lowest tested rate (300, 100, 30, 10 g/ha) with 80% or greater inhibition; approx. 14 days after treating; 30/21° C.
Description: as §1, §2, §3, §4

SOLNI (black nightshade) = experiment: Pre-emergence herbicidal activity, warm season; assay type: in vivo, Solanum nigrum; settings: GR80 = lowest tested rate (300, 100, 30, 10 g/ha) with 80% or greater inhibition; approx. 14 days after treating; 30/21° C.
Description: as §1, §2, §3, §4

DIGSA (large crabgrass) = experiment: Pre-emergence herbicidal activity, warm season; assay type: in vivo, Digitaria sanguinalis; settings: GR80 = lowest tested rate (300, 100, 30, 10 g/ha) with 80% or greater inhibition; approx. 14 days after treating; 30/21° C.
Description: as §1, §2, §3, §4

ALOMY (blackgrass) = experiment: Pre-emergence herbicidal activity, cool season; assay type: in vivo, Alopecurus myosuroides; settings: GR80 = lowest tested rate (300, 100, 30, 10 g/ha) with 80% or greater inhibition; approx. 14 days after treating; 18/13° C.
Description: as §1, §2, §3, §4

DATST (jimsonweed) = experiment: Pre-emergence herbicidal activity, warm season; assay type: in vivo, Datura stramonium; settings: GR80 = lowest tested rate (300, 100, 30, 10 g/ha) with 80% or greater inhibition; approx. 14 days after treating; 30/21° C.
Description: as §1, §2, §3, §4

SORVU (shattercane) = experiment: Pre-emergence herbicidal activity, warm season; assay type: in vivo, Sorghum vulgare; settings: GR80 = lowest tested rate (300, 100, 30, 10 g/ha) with 80% or greater inhibition; approx. 14 days after treating; 30/21° C.
Description: as §1, §2, §3, §4

[9] = test system: BRAPP (broadleaf signalgrass); experiment: Pre-emergence herbicidal activity, warm season; assay type: in vivo, Brachiaria platyphylla; settings: GR80 = lowest tested rate (300, 100, 30, 10 g/ha) with 80% or greater inhibition; approx. 14 days after treating; 30/21° C.
Description: as §1, §2, §3, §4

| Structure (SMILES) | Pre-emergence activity (GR80) CHEAL [1] [g/ha] | Pre-emergence activity GR80, STEME (STEME (common chickweed)) | Pre-emergence activity GR80, SINAR (SINAR (wild mustard)) | Pre-emergence activity (GR80) AGSST [2] [g/ha] | Pre-emergence activity GR80, LAMPU [3] | Pre-emergence activity (GR80) SORHA [4] [g/ha] | Pre-emergence activity GR80, POLCO (POLCO (wild buckwheat)) | Pre-emergence activity (GR80) SETFA (SETFA (giant foxtail)) [g/ha] | Pre-emergence activity (GR80) PANMI [5] [g/ha] | Pre-emergence activity GR80, VERPE [6] | Pre-emergence activity (GR80) SETVI (SETVI (green foxtail)) [g/ha] | Pre-emergence activity (GR80) POROL (POROL (common purslane)) [g/ha] | Pre-emergence activity (GR80) AMARE (AMARE (redroot pigweed)) [g/ha] | Pre-emergence activity GR80, GALAP [7] | Pre-emergence activity GR80, SASKR (SASKR (russian thistle)) | Pre-emergence activity (GR80) ECHCG (ECHCG (barnyardgrass)) [g/ha] | Pre-emergence activity (GR80) CIRAR [8] [g/ha] | Pre-emergence activity (GR80) SOLNI (SOLNI (black nightshade)) [g/ha] | Pre-emergence activity (GR80) DIGSA (DIGSA (large crabgrass)) [g/ha] | Pre-emergence activity (GR80) ALOMY (ALOMY (blackgrass)) [g/ha] | other results |
| --- | --- | --- | --- | --- | --- | --- | --- | --- | --- | --- | --- | --- | --- | --- | --- | --- | --- | --- | --- | --- | --- |
| CN(C(=O)n1cnc(S(=O)(=O)C(F)(F)C(F)F)n1)C1CCCCC1 [Example 67] | 100 | [empty] | [empty] | 100 | [empty] | 300 | 300 g/ha | 300 | 100 | 100 g/ha | 300 | 300 | 300 | 300 g/ha | [empty] | 300 | – | – | – | – | – |
| CCN(CC)C(=S)n1cnc(S(=O)(=O)C(F)(F)C(F)F)n1 [Example 70] | 300 | [empty] | 300 g/ha | 300 | [empty] | – | 300 g/ha | 300 | 300 | [empty] | 300 | 300 | – | [empty] | 300 g/ha | – | 300 | 300 | 300 | – | – |
| O=C(N1CCCC1)n1cnc(S(=O)(=O)C(F)(F)C(F)F)n1 [Example 71] | 30 | 300 g/ha | [empty] | 100 | 300 g/ha | 300 | 300 g/ha | 300 | 300 | [empty] | 100 | 300 | 300 | 100 g/ha | [empty] | – | 300 | 300 | – | 300 | – |
| O=C(N1CCOCC1)n1cnc(S(=O)(=O)C(F)(F)Cl)n1 [Example 84] | – | [empty] | [empty] | – | 300 g/ha | – | 300 g/ha | – | – | [empty] | – | – | – | [empty] | [empty] | – | – | – | – | – | Pre-emergence activity (GR80) DATST (DATST (jimsonweed)): 300 g/ha |
| CCCN(CC)C(=O)n1cnc(S(=O)(=O)C(F)(F)Cl)n1 [Example 87] | 300 | [empty] | [empty] | 100 | 100 g/ha | 100 | [empty] | 300 | 30 | 100 g/ha | 100 | 100 | 300 | 300 g/ha | [empty] | 100 | 300 | 100 | 300 | 100 | Pre-emergence activity (GR80) SORVU (SORVU (shattercane)): 300 g/ha; Pre-emergence activity (GR80) BRAPP [9]: 300 g/ha |
